Reference: the CombiSolv-Exp solvation set (Vermeire and Green 2021)

Assay: solvent given as SMILES

SMILES: C=CCCCCCCCCCC
- solvation free energy, 298 K (in CN(C)C=O): -6.25 kcal/mol
- solvation free energy, 298 K (in O): 2.58 kcal/mol

SMILES: O=COc1ccccc1
- solvation free energy, 298 K (in O): -3.82 kcal/mol

SMILES: CCOP(=S)(OCC)SCSCC
- solvation free energy, 298 K (in O): -4.37 kcal/mol

SMILES: O=C(OC1CCCCC1)c1ccccc1C(=O)OC1CCCCC1
- solvation free energy, 298 K (in O): -9.07 kcal/mol

SMILES: CNC(=O)Oc1cccc2c1OC(C)(C)C2
- solvation free energy, 298 K (in O): -9.61 kcal/mol

SMILES: O=C1CCCC1
- solvation free energy, 298 K (in CCCCCCC): -4.53 kcal/mol
- solvation free energy, 298 K (in CCCCCCCCCCCCCCCC): -4.22 kcal/mol
- solvation free energy, 298 K (in CCCCCCCCO): -5.02 kcal/mol
- solvation free energy, 298 K (in CCCCCl): -5.46 kcal/mol
- solvation free energy, 298 K (in CCCCOCCCC): -4.82 kcal/mol
- solvation free energy, 298 K (in ClC(Cl)(Cl)Cl): -5.54 kcal/mol
- solvation free energy, 298 K (in ClCCCl): -6.26 kcal/mol
- solvation free energy, 298 K (in O): -4.72 kcal/mol
- solvation free energy, 298 K (in [2H]O[2H]): -4.75 kcal/mol

SMILES: CC(C)=CCCC(C)CCOC=O (stereo not given)
- solvation free energy, 298 K (in O): -3.08 kcal/mol

SMILES: CCC(=O)CC(C)=O
- solvation free energy, 298 K (in O): -4.79 kcal/mol

SMILES: CC1CCC2=C1CC1CCC2(C)C1(C)C (stereo not given)
- solvation free energy, 298 K (in O): 0.78 kcal/mol

SMILES: CCCCN
- solvation free energy, 298 K (in C1COCCO1): -4.48 kcal/mol
- solvation free energy, 298 K (in CCCCCCCC): -3.44 kcal/mol
- solvation free energy, 298 K (in CCCCCCCCCC): -3.4 kcal/mol
- solvation free energy, 298 K (in CCCCCCCCCCCCCCCC): -3.5 kcal/mol
- solvation free energy, 298 K (in CCCCOCCCC): -3.66 kcal/mol
- solvation free energy, 298 K (in O): -4.23 kcal/mol

SMILES: c1cc2ccc3ccc4ccc5cccc6c(c1)c2c3c4c56
- solvation free energy, 298 K (in O): -8.98 kcal/mol
- solvation free energy, 298 K (in O=C1CCCCC1): -19.4 kcal/mol

SMILES: CCCCCCCCl
- solvation free energy, 298 K (in O): 0.29 kcal/mol

SMILES: CCCCCCOC(C)=O
- solvation free energy, 298 K (in CCCCCCCCCCCCCCCC): -5.94 kcal/mol
- solvation free energy, 298 K (in CCCCCCCCO): -6.26 kcal/mol
- solvation free energy, 298 K (in NC=O): -4.6 kcal/mol
- solvation free energy, 298 K (in O): -2.29 kcal/mol
- solvation free energy, 298 K (in [2H]O[2H]): -2.44 kcal/mol

SMILES: CCOC=O
- solvation free energy, 298 K (in C=CCCCCCCCCCCCCCC): -2.62 kcal/mol
- solvation free energy, 298 K (in CC(C)O): -3.15 kcal/mol
- solvation free energy, 298 K (in CCC(C)=O): -3.71 kcal/mol
- solvation free energy, 298 K (in CCCCCCCCCCCCCCCC): -2.55 kcal/mol
- solvation free energy, 298 K (in CCCCCCCCO): -2.98 kcal/mol
- solvation free energy, 298 K (in ClC(Cl)(Cl)Cl): -3.33 kcal/mol
- solvation free energy, 298 K (in ClC(Cl)Cl): -4.37 kcal/mol
- solvation free energy, 298 K (in O): -2.64 kcal/mol
- solvation free energy, 298 K (in [2H]O[2H]): -2.64 kcal/mol

SMILES: CCc1ccc(O)cc1
- solvation free energy, 298 K (in C=CCCCCCCC=C): -7.11 kcal/mol
- solvation free energy, 298 K (in CCCCCC): -6.53 kcal/mol
- solvation free energy, 298 K (in CCCCCCC): -6.47 kcal/mol
- solvation free energy, 298 K (in CCCCCCCC): -6.44 kcal/mol
- solvation free energy, 298 K (in Cc1ccc(C)cc1): -7.85 kcal/mol
- solvation free energy, 298 K (in Cc1cccc(C)c1): -7.83 kcal/mol
- solvation free energy, 298 K (in Cc1ccccc1C): -7.87 kcal/mol
- solvation free energy, 298 K (in O): -6.14 kcal/mol

SMILES: O=C(c1cc([N+](=O)[O-])cc([N+](=O)[O-])c1)N(O)c1ccccc1
- solvation free energy, 298 K (in O): -15.6 kcal/mol

SMILES: Cc1c(Cl)c(Cl)c(Cl)c(Cl)c1Cl
- solvation free energy, 298 K (in CCCCCCCCC=CCCCCCCCC(=O)OCC(COC(=O)CCCCCCCC=CCCCCCCCC)OC(=O)CCCCCCCC=CCCCCCCCC): -9.88 kcal/mol
- solvation free energy, 298 K (in O): -2.02 kcal/mol

SMILES: C=O
- solvation free energy, 298 K (in O): -2.75 kcal/mol

SMILES: CCCCCCCCCC(=O)O
- solvation free energy, 298 K (in O): -5.28 kcal/mol

SMILES: CCc1ccc(C)cc1
- solvation free energy, 298 K (in O): -0.95 kcal/mol

SMILES: C=C(C)C1CCC2=CCCC(C)C2(C)C1 (stereo not given)
- solvation free energy, 298 K (in O): -0.15 kcal/mol

SMILES: CC(C)I
- solvation free energy, 298 K (in CCO): -3.98 kcal/mol
- solvation free energy, 298 K (in O): -0.46 kcal/mol

SMILES: CC(C)CCCCOC(=O)c1ccccc1C(=O)OCCCCC(C)C
- solvation free energy, 298 K (in O): -6.55 kcal/mol

SMILES: C1=CCCC1
- solvation free energy, 298 K (in CN1CCCC1=O): -2.84 kcal/mol
- solvation free energy, 298 K (in CN(C)C=O): -2.93 kcal/mol
- solvation free energy, 298 K (in CS(C)=O): -2.72 kcal/mol
- solvation free energy, 298 K (in O): 0.54 kcal/mol
- solvation free energy, 298 K (in O=CN1CCOCC1): -2.52 kcal/mol

SMILES: CC1=CCC(C(C)C)=CC1
- solvation free energy, 298 K (in O): -0.03 kcal/mol
